Measured values published in PubChem BioAssay AID248 (DTP/NCI, 2004).
Values joined by “and” are separate entries in the source; they are usually repeats but may differ in a detail not shown here. Identical values can stand only once. Toxic doses and inconclusive results are not listed. Rule as the data show it: active = T/C of 150% or more; inactive = T/C below 125%.

Tested on: L1210 leukemia ip in BDF1 mice, survival T/C
Experiment: NCI In Vivo Anticancer Drug Screen. Data for tumor model L1210 Leukemia (intraperitoneal) in B6D2F1 (BDF1) mice
Settings: endpoint: mean survival time, higher = longer survival
Summary of the method: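 Ratio derived from survival: compound-dosed mice over vehicle-dosed mice, all bearing a transplantable tumor.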

[1] = dose: 100.0 mg/kg/injection, schedule: Q04DX003 (ip), vehicle: Klucel (hydroxypropylcellulose) (HPC)
[2] = dose: 200.0 mg/kg/injection, schedule: Q04DX003 (ip), vehicle: Klucel (hydroxypropylcellulose) (HPC)
[3] = dose: 100.0 mg/kg/injection, schedule: Q01DX009 (ip), vehicle: saline with Tween-80
[4] = dose: 200.0 mg/kg/injection, schedule: Q01DX009 (ip), vehicle: saline with Tween-80
[5] = dose: 100.0 mg/kg/injection, schedule: Q04DX003 (ip), vehicle: saline
[6] = dose: 100.0 mg/kg/injection, schedule: Q04DX003 (ip), vehicle: saline with Tween-80
[7] = dose: 200.0 mg/kg/injection, schedule: Q04DX003 (ip), vehicle: saline with Tween-80
[8] = dose: 100.0 mg/kg/injection, schedule: Q01DX009 (ip), vehicle: saline
[9] = dose: 100.0 mg/kg/injection, schedule: Q01DX001 (ip), vehicle: Klucel (hydroxypropylcellulose) (HPC)
[10] = dose: 200.0 mg/kg/injection, schedule: Q01DX001 (ip), vehicle: Klucel (hydroxypropylcellulose) (HPC)
[11] = dose: 400.0 mg/kg/injection, schedule: Q01DX001 (ip), vehicle: Klucel (hydroxypropylcellulose) (HPC)
[12] = dose: 100.0 mg/kg/injection, schedule: Q04DX002 (ip), vehicle: saline with Tween-80
[13] = dose: 200.0 mg/kg/injection, schedule: Q04DX002 (ip), vehicle: saline with Tween-80
[14] = dose: 400.0 mg/kg/injection, schedule: Q04DX002 (ip), vehicle: saline with Tween-80

Measured: T/C

CN(C)c1ccc(Cc2ccc(N(C)C)nc2)cn1
inactive: [1] 110 % of control | [2] 102 % of control | dose: 400.0 mg/kg/injection, schedule: Q04DX003 (ip), vehicle: Klucel (hydroxypropylcellulose) (HPC) 100 % of control

CCOC(=O)c1ccc(NC(=O)Nc2nccs2)cc1
inactive: dose: 88.0 mg/kg/injection, schedule: Q01DX009 (ip), vehicle: saline with Tween-80 113 % of control | [3] 123 % of control | dose: 132.0 mg/kg/injection, schedule: Q01DX009 (ip), vehicle: saline with Tween-80 109 % of control | [4] 122 % of control | dose: 300.0 mg/kg/injection, schedule: Q01DX009 (ip), vehicle: saline with Tween-80 124 % of control

Nc1[nH]c(=O)cc(O)c1N
inactive: dose: 12.5 mg/kg/injection, schedule: Q04DX003 (ip), vehicle: saline 108 % of control | dose: 25.0 mg/kg/injection, schedule: Q04DX003 (ip), vehicle: saline 105 % of control | [5] 98 % of control

CCCC(O)(CC)C1CCCC1C (stereo unspecified)
inactive: dose: 50.0 mg/kg/injection, schedule: Q01DX009 (ip), vehicle: saline with Tween-80 105 % of control | [3] 111 % of control | [4] 94 % of control

CN1CCN(c2nc3ccccc3n3nnnc23)CC1
inactive: dose: 37.5 mg/kg/injection, schedule: Q04DX003 (ip), vehicle: saline 104 % of control | dose: 75.0 mg/kg/injection, schedule: Q04DX003 (ip), vehicle: saline 107 % of control

CN(C)c1nc(=[N+](C)C)ss1
inactive: dose: 15.0 mg/kg/injection, schedule: Q01DX015 (ip), vehicle: saline 102 % of control | dose: 30.0 mg/kg/injection, schedule: Q01DX015 (ip), vehicle: saline 94 % of control | dose: 60.0 mg/kg/injection, schedule: Q01DX015 (ip), vehicle: saline 100 % of control | [6] 100 % of control | dose: 120.0 mg/kg/injection, schedule: Q01DX015 (ip), vehicle: saline 105 % of control | [7] 96 % of control

O=C(Oc1ccccc1)c1cc(Br)ccc1O
inactive: dose: 100.0 mg/kg/injection, schedule: Q01DX001 (ip), vehicle: carboxymethylcellulose (CMC) 97 % of control | dose: 200.0 mg/kg/injection, schedule: Q01DX001 (ip), vehicle: carboxymethylcellulose (CMC) 95 % of control | dose: 400.0 mg/kg/injection, schedule: Q01DX001 (ip), vehicle: carboxymethylcellulose (CMC) 100 % of control

O=CC(O)C(O)C(O)C(O)COP(=O)(O)O (stereo unspecified)
inactive: dose: 25.0 mg/kg/injection, schedule: Q01DX009 (ip), vehicle: saline 102 % of control | dose: 50.0 mg/kg/injection, schedule: Q01DX009 (ip), vehicle: saline 93 % of control | [8] 88 % of control

COc1c(F)c(F)c(Oc2c(F)c(F)c(OC)c(F)c2F)c(F)c1F
inactive: [9] 99 % of control | [10] 92 % of control | [11] 94 % of control

CCCCOc1c(Cl)c(Cl)c(OP(=O)(OCCCC)OCCCC)c(Cl)c1Cl
inactive: dose: 100.0 mg/kg/injection, schedule: Q04DX002 (ip), vehicle: other 103 % of control | dose: 200.0 mg/kg/injection, schedule: Q04DX002 (ip), vehicle: other 88 % of control | dose: 400.0 mg/kg/injection, schedule: Q04DX002 (ip), vehicle: other 103 % of control

COCCc1cccc(C)n1
inactive: [8] 93 % of control | [5] 93 % of control | dose: 200.0 mg/kg/injection, schedule: Q01DX009 (ip), vehicle: saline 92 % of control | dose: 200.0 mg/kg/injection, schedule: Q04DX003 (ip), vehicle: saline 94 % of control | dose: 400.0 mg/kg/injection, schedule: Q04DX003 (ip), vehicle: saline 91 % of control

CC(=O)Nc1nc(C=O)cc(=O)[nH]1
inactive: [9] 100 % of control | dose: 100.0 mg/kg/injection, schedule: Q01DX001 (ip), vehicle: other 86 % of control | [10] 104 % of control | [11] 103 % of control | dose: 400.0 mg/kg/injection, schedule: Q01DX001 (ip), vehicle: other 91 % of control

C/C=C\c1ccc(OC(=O)NCCC)c(OC)c1
inactive: [3] 95 % of control and 97 % of control | dose: 100.0 mg/kg/injection, schedule: Q04DX002 (ip), vehicle: Klucel (hydroxypropylcellulose) (HPC) 100 % of control | [12] 102 % of control and 106 % of control | [6] 97 % of control | [4] 95 % of control and 97 % of control | dose: 200.0 mg/kg/injection, schedule: Q04DX002 (ip), vehicle: Klucel (hydroxypropylcellulose) (HPC) 113 % of control | [13] 105 % of control and 112 % of control | [7] 87 % of control | dose: 400.0 mg/kg/injection, schedule: Q01DX009 (ip), vehicle: saline with Tween-80 97 % of control | dose: 400.0 mg/kg/injection, schedule: Q04DX002 (ip), vehicle: Klucel (hydroxypropylcellulose) (HPC) 95 % of control | [14] 94 % of control and 106 % of control | dose: 400.0 mg/kg/injection, schedule: Q04DX003 (ip), vehicle: saline with Tween-80 102 % of control

COC(=O)/C(C)=N\N=C(N)N
inactive: dose: 15.0 mg/kg/injection, schedule: Q01DX Z (ip), vehicle: carboxymethylcellulose (CMC) 104 % of control | dose: 30.0 mg/kg/injection, schedule: Q01DX Z (ip), vehicle: carboxymethylcellulose (CMC) 92 % of control | dose: 60.0 mg/kg/injection, schedule: Q01DX Z (ip), vehicle: carboxymethylcellulose (CMC) 103 % of control | dose: 120.0 mg/kg/injection, schedule: Q01DX Z (ip), vehicle: carboxymethylcellulose (CMC) 97 % of control | dose: 240.0 mg/kg/injection, schedule: Q01DX Z (oral), vehicle: carboxymethylcellulose (CMC) 100 % of control | dose: 480.0 mg/kg/injection, schedule: Q01DX Z (oral), vehicle: carboxymethylcellulose (CMC) 96 % of control | dose: 960.0 mg/kg/injection, schedule: Q01DX Z (oral), vehicle: carboxymethylcellulose (CMC) 100 % of control | dose: 1920.0 mg/kg/injection, schedule: Q01DX Z (oral), vehicle: carboxymethylcellulose (CMC) 98 % of control

O=C(Nc1ccc(C(=O)O)cc1)Oc1ccc(N(CCCl)CCCl)cc1
active: dose: 48.0 mg/kg/injection, schedule: Q01DX009 (ip), vehicle: other 160 % of control
inactive: dose: 6.0 mg/kg/injection, schedule: Q01DX009 (ip), vehicle: other 114 % of control | dose: 6.0 mg/kg/injection, schedule: Q01DX009 (ip), vehicle: saline 106 % of control | dose: 12.0 mg/kg/injection, schedule: Q01DX009 (ip), vehicle: other 122 % of control | dose: 12.0 mg/kg/injection, schedule: Q01DX009 (ip), vehicle: saline 117 % of control | dose: 37.5 mg/kg/injection, schedule: Q01DX001 (ip), vehicle: other 114 % of control | dose: 75.0 mg/kg/injection, schedule: Q01DX001 (ip), vehicle: carboxymethylcellulose (CMC) 124 % of control | dose: 75.0 mg/kg/injection, schedule: Q01DX001 (ip), vehicle: other 121 % of control | dose: 96.0 mg/kg/injection, schedule: Q01DX009 (ip), vehicle: other 101 % of control | dose: 96.0 mg/kg/injection, schedule: Q01DX009 (ip), vehicle: saline 91 % of control | dose: 300.0 mg/kg/injection, schedule: Q01DX001 (ip), vehicle: other 117 % of control

NC(=O)C1(NC2CCCCC2)CCN(Cc2ccccc2)CC1
inactive: dose: 50.0 mg/kg/injection, schedule: Q01DX009 (ip), vehicle: gum acacia 100 % of control | dose: 100.0 mg/kg/injection, schedule: Q01DX009 (ip), vehicle: gum acacia 100 % of control | dose: 100.0 mg/kg/injection, schedule: Q04DX003 (ip), vehicle: gum acacia 96 % of control | dose: 200.0 mg/kg/injection, schedule: Q01DX009 (ip), vehicle: gum acacia 93 % of control | dose: 200.0 mg/kg/injection, schedule: Q04DX003 (ip), vehicle: gum acacia 96 % of control

O=[N+]([O-])c1cccn2cnnc12
inactive: dose: 100.0 mg/kg/injection, schedule: Q01DX001 (ip), vehicle: acetone 92 % of control

CC(=O)NNc1ccccc1Cl
inactive: [1] 96 % of control | [2] 117 % of control

CC(C)CC(=O)/C=C/C=C/c1ccccc1
inactive: [12] 101 % of control | [13] 95 % of control | [14] 111 % of control
